Experimental data: ChEMBL document CHEMBL1201862, “PubChem BioAssay data set” (2004)
Activity calls are given as the source filed them.

Tests used:
[1] = target: T1, Heat shock factor protein 1 (Mus musculus, UniProt P38532); test: inhibition of MG132-induced HSE-luciferase signal, confirmation, cell-based, NIH3T3, luminescence, dose retest (AID 2382); type: functional;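 also: NIH3T3 fibroblasts with HSF1-driven luciferase reporter stressed by proteasome inhibitor MG132; luminescence from HSF1-driven luciferase expression after 8 hours of MG132 stress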
T1 sequence (P38532 whole entry): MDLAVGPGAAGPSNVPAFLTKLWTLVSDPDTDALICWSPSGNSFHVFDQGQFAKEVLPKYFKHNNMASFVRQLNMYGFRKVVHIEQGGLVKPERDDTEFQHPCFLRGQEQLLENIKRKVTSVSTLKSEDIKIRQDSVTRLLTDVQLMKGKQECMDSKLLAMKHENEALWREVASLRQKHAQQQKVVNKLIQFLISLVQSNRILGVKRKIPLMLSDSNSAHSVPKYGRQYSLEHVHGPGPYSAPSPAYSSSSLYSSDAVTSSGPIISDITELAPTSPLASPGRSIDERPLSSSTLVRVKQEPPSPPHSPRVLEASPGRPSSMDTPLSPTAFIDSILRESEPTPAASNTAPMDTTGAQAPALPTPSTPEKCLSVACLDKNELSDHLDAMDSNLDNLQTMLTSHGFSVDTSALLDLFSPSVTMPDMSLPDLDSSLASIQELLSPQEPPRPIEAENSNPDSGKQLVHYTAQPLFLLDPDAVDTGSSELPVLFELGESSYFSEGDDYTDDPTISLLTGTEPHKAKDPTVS

[2] = HEp-2 cell cytotoxicity, dose response, cytotoxicity control for RSV inhibitor project, HTS (AID 2410); type: functional; conditions: human respiratory syncytial virus
[3] = cells
[4] = target: T2, Dual specificity protein phosphatase 6 (Rattus norvegicus, UniProt Q64346); test: MKP-3 phosphatase inhibitors, primary screen, biochemical, rat enzyme, in vitro (AID 425)
T2 sequence (Q64346 whole entry): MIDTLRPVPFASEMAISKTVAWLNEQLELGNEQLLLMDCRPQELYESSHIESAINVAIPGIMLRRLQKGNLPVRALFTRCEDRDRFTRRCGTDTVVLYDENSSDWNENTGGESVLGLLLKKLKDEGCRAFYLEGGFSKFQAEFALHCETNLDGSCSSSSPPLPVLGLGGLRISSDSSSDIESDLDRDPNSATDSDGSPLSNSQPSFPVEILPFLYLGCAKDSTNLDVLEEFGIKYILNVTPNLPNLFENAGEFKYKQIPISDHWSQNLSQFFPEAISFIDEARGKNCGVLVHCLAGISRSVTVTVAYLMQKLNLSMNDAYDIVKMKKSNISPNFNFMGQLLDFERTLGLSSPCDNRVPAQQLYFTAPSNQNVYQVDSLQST

[5] = target: NS3 (Hepatitis C virus, UniProt A3EZJ3); test: HCV NS3 helicase inhibitor potency, dose response, biochemical, fluorescence polarization, ChemBridge library (AID 743264)
[6] = target: Large T antigen (Simian virus 40, UniProt P03070); type: functional, Betapolyomavirus macacae;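 also: Confirmatory-stage PubChem screen for compounds that inhibit SV40 T antigen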
Sequence of Large T antigen (P03070 whole entry): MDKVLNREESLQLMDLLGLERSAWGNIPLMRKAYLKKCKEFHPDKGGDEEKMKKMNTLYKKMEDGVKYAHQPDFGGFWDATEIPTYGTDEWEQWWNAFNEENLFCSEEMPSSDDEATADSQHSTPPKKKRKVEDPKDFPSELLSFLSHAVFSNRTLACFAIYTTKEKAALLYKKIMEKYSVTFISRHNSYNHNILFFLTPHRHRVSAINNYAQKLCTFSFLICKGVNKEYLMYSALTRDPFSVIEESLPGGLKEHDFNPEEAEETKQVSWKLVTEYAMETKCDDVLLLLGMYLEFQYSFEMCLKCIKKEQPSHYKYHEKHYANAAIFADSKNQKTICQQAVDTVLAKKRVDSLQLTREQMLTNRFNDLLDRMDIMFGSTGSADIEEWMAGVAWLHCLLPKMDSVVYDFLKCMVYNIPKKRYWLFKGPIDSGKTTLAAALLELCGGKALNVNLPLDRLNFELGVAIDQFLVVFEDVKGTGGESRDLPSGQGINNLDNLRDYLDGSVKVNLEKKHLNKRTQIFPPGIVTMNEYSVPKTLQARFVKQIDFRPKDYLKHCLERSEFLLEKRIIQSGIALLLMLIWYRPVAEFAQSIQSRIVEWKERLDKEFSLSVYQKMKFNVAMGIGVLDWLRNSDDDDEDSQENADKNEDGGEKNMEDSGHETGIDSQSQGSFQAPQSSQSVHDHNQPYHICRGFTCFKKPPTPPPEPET

[7] = target: Induced myeloid leukemia cell differentiation protein Mcl-1 (Homo sapiens, UniProt Q07820); type: functional
Sequence of Induced myeloid leukemia cell differentiation protein Mcl-1 (Q07820 whole entry): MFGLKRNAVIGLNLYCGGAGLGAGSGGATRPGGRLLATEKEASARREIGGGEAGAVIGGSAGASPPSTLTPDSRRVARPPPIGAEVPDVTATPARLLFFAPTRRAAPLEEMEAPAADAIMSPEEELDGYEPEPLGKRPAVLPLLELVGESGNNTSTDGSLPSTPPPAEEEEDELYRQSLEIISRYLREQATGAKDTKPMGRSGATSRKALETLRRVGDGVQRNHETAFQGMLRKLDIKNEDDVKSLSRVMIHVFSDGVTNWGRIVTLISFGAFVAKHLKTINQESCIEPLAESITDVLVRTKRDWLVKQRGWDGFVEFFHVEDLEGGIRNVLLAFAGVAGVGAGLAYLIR

[8] = target: Eukaryotic translation initiation factor 4E (Mus musculus, UniProt P63073); test: eIF4E–eIF4G protein interaction inhibitors, dose response, biochemical, TR-FRET (AID 855); type: functional;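 also: potency for disrupting eIF4E binding to eIF4GI seen as loss of FRET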
Sequence of Eukaryotic translation initiation factor 4E (P63073 whole entry): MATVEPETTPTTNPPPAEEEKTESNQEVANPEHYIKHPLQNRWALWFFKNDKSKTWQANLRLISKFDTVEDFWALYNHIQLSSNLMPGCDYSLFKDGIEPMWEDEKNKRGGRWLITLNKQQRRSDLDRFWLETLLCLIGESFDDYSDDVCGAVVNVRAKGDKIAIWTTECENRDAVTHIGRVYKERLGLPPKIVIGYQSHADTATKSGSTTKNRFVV

[9] = target: Heat shock cognate 71 kDa protein (Homo sapiens, UniProt P11142); test: In Vitro Hsc70 Dose Response Fluorescence Polarization Assay. [Related pubchem assays: 1072 ]
Sequence of Heat shock cognate 71 kDa protein (P11142 whole entry): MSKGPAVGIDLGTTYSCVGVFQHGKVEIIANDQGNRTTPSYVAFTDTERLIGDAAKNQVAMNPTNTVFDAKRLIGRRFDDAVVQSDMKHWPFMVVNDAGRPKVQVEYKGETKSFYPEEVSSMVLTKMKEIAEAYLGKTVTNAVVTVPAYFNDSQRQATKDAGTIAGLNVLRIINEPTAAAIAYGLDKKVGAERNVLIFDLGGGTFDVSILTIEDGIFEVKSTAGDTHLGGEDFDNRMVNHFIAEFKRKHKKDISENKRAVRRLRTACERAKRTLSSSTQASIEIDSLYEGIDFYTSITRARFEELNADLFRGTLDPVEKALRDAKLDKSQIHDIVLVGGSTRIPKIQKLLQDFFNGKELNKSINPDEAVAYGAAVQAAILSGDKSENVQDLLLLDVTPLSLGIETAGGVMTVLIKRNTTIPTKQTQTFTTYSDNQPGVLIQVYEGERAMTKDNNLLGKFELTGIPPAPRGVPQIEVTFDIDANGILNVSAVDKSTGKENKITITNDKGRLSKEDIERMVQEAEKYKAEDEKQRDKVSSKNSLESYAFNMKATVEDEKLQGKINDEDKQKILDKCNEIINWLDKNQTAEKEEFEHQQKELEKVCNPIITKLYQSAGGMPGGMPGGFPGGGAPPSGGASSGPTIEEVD

[10] = target: T3, Tyrosine-protein phosphatase non-receptor type 7 (Homo sapiens, UniProt P35236); type: functional
T3 sequence (P35236 whole entry): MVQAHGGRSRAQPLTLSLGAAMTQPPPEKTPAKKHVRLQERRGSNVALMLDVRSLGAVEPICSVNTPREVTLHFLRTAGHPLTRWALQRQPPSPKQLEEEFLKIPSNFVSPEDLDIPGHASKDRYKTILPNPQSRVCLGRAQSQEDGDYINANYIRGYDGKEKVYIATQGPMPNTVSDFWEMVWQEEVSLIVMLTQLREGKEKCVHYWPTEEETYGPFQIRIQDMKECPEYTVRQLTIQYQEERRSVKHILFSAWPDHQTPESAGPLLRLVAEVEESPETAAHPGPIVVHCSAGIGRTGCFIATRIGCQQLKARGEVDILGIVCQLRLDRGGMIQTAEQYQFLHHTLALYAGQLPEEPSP

[11] = target: Glyceraldehyde-3-phosphate dehydrogenase (Homo sapiens, UniProt P04406)
[12] = target: Heat shock 70 kDa protein 1A (Homo sapiens, UniProt P0DMV8); test: Hsp70 inhibitors, SAR follow-up, biochemical, fluorescence polarization (AID 1072)
Sequence of Heat shock 70 kDa protein 1A (P0DMV8 whole entry): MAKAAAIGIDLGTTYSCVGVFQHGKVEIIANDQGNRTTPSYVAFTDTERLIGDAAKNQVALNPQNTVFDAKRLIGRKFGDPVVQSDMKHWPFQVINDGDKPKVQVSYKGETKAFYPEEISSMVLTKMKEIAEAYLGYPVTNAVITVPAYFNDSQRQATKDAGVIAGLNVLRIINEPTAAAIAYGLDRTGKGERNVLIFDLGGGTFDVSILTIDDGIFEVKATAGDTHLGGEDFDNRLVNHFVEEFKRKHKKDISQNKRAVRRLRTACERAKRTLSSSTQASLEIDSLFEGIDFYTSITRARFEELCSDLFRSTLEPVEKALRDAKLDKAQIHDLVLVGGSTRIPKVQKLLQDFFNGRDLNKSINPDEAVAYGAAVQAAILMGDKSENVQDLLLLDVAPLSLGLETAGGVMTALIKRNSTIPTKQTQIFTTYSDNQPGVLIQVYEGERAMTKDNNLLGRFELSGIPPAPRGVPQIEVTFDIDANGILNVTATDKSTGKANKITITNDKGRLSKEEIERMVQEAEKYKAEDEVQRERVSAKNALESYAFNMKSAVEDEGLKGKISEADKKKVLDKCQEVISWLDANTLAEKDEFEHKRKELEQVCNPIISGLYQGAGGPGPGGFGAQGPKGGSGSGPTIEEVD

[13] = target: T2, Dual specificity protein phosphatase 6
[14] = target: Acyl-homoserine lactone acylase PvdQ (Pseudomonas aeruginosa (strain LESB58), UniProt Q9I194); test: P. aeruginosa PvdQ acylase inhibitors, dose response, biochemical, fluorescence, plate reader and imaging, cherry-picks (AID 493231)
Sequence of Acyl-homoserine lactone acylase PvdQ (Q9I194 24-193 limits assumed): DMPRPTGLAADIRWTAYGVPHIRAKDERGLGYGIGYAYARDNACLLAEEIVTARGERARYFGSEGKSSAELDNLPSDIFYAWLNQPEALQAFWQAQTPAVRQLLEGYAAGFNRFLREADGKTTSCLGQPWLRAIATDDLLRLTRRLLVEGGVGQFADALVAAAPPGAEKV
Sequence of Acyl-homoserine lactone acylase PvdQ (Q9I194 217-762 limits assumed): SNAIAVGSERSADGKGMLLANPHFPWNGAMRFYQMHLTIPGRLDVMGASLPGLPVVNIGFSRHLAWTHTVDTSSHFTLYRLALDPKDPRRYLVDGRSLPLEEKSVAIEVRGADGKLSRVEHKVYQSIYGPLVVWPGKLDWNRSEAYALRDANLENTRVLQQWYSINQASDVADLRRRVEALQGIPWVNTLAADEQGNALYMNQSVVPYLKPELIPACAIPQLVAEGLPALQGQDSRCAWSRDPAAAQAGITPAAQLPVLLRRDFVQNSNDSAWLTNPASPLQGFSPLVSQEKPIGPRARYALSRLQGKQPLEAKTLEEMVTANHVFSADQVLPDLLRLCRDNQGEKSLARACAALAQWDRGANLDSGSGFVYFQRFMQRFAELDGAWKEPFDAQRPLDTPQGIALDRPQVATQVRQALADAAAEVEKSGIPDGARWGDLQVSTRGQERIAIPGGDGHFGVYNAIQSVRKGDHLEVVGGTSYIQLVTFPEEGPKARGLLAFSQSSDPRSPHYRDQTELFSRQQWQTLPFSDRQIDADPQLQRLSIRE

[15] = target: Cytochrome P450 2C9 (Homo sapiens, UniProt P11712); conditions: Potency
[16] = target: Cytochrome P450 2D6 (Homo sapiens, UniProt P10635); test: qHTS Assay for Inhibitors and Substrates of Cytochrome P450 2D6. [Related pubchem assays: 410 ]; type: ADME; conditions: read-out: Potency
Sequence of Cytochrome P450 2D6 (P10635 whole entry): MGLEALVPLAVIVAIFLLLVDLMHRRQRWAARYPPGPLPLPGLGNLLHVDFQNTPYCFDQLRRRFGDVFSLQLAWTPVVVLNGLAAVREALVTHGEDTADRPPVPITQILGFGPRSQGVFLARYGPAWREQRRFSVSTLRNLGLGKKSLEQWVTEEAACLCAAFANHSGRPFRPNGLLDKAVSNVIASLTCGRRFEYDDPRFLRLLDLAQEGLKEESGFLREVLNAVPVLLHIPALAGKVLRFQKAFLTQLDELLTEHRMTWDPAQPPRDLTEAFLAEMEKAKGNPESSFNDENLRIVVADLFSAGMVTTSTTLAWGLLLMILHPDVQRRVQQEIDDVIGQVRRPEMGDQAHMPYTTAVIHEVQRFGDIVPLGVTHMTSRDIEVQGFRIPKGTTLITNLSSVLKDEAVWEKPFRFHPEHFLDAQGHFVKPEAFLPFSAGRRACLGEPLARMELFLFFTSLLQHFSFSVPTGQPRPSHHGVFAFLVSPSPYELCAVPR

[17] = target: Cytochrome P450 3A4 (Homo sapiens, UniProt P08684); conditions: Potency;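 also: confirmatory qHTS run detecting inhibitors and substrates of CYP3A4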
[18] = target: Lysosomal acid glucosylceramidase (Homo sapiens, UniProt P04062); test: Dose response cell-based high throughput screening assay to identify enhancers of beta-glucosidase activity. [Related pubchem assays: 784 ]; type: functional
[19] = target: Vasopressin V1a receptor (Homo sapiens, UniProt P37288); test: Counterscreen for Oxytocin Receptor (OXTR) agonists: Fluorescence-based cell-based high throughput dose response assay to identify agonists of the vasopressin 1 receptor (V1R). [Related pubchem assays: 2435 (Primary screen (OXTR agonists in singlicate)), 434991 (Counterscreen (V1R agonists in triplicate)), 2482 (Summary (OXTR agonists)) …; type: functional
Sequence of Vasopressin V1a receptor (P37288 whole entry): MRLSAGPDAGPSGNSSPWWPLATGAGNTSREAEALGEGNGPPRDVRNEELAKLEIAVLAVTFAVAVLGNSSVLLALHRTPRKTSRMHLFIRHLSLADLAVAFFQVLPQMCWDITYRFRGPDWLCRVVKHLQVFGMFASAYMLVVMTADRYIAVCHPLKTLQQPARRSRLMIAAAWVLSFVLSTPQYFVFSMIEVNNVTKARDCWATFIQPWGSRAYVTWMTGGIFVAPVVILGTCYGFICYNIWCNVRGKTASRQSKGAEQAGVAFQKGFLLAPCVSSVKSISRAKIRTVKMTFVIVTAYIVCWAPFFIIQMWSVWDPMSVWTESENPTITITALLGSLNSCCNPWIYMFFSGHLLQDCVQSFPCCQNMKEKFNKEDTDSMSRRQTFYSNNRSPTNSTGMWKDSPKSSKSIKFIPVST

[20] = target: Oxytocin receptor (Homo sapiens, UniProt P30559); test: Fluorescence-based cell-based high throughput dose response assay for agonists of the Oxytocin Receptor (OXTR). [Related pubchem assays: 2435 (Primary screen (OXTR agonists in singlicate)), 434991 (Counterscreen (V1R agonists in triplicate)), 2482 (Summary (OXTR agonists)), 434963 (Confirmation screen (OXTR agonists in triplicate))]; type: functional
Sequence of Oxytocin receptor (P30559 whole entry): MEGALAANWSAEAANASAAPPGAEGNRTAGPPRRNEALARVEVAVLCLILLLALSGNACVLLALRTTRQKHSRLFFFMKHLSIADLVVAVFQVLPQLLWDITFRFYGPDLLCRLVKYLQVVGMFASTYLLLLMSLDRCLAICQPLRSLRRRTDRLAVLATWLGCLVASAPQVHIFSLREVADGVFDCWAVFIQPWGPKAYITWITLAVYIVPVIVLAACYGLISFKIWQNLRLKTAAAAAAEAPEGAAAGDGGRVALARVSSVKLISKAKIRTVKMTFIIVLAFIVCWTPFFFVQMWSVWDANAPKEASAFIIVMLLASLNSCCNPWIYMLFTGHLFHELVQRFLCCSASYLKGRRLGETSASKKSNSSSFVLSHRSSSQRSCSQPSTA

[21] = target: T4, Corticotropin-releasing factor receptor 2/Corticotropin-releasing factor-binding protein (Homo sapiens, UniProt P24387+Q13324); test: activators of CRF receptor 2 with binding protein – uHTS hits, confirmation (AID 602473); type: functional; conditions: read-out: EC50_Mean
T4 sequence (Q13324 whole entry): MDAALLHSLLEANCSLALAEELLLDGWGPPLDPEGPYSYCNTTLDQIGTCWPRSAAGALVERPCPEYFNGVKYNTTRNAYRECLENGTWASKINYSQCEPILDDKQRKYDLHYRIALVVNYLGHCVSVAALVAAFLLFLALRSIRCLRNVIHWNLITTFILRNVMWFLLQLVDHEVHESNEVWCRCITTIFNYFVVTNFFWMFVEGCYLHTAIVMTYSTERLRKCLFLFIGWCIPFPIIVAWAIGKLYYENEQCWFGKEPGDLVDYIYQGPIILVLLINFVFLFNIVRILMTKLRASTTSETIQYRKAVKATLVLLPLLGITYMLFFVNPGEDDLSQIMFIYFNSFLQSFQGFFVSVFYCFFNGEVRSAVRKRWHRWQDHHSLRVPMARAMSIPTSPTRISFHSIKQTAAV
T4 sequence (P24387 whole entry): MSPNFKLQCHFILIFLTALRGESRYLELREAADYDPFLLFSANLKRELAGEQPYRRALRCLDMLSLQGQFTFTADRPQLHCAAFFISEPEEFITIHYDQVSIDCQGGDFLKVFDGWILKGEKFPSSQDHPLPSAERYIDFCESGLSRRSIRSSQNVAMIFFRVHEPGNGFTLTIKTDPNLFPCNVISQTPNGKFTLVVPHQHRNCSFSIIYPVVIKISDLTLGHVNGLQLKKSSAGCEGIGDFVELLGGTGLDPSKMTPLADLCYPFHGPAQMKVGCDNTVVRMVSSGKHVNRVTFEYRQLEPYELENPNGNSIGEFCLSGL

[22] = system: Vibrio harveyi; test: Quorum Sensing, LuxS, LuxPQ Measured in Microorganism System Using Plate Reader - 2035-01_Inhibitor_DoseNoFile_DryPowder_Activity. [Related pubchem assays (depositor defined):AID2106]; type: functional, organism-based
[23] = target: Melanin-concentrating hormone receptor 1 (Homo sapiens, UniProt Q99705); test: Late-stage fluorescence-based counterscreen for antagonists of the G-protein coupled receptor 7 (GPR7): cell-based dose response assay to identify antagonists of the melanin-concentrating hormone receptor 1 (MCHR1). [Related pubchem assays (depositor defined):AID1861, AID1880, AID1952, AID2148, AID2251, AID2257, AID485339]; type: functional;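 also: stimulated with 30 nM MCH peptide agonist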
Sequence of Melanin-concentrating hormone receptor 1 (Q99705 whole entry): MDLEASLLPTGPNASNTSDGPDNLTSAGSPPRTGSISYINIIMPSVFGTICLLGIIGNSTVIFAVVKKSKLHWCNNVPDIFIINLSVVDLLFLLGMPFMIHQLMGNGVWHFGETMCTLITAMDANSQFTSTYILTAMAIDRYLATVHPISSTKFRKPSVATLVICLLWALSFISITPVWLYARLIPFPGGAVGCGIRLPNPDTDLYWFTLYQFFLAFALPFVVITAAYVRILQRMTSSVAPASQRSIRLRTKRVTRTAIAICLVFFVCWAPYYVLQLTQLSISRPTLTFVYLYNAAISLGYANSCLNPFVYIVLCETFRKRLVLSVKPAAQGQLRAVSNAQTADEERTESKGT

[24] = target: T5, Insulin-degrading enzyme (Homo sapiens, UniProt P14735); test: Dose Response: Fluorescence polarization-based cell-based high throughput dose response assay for inhibitors of insulin-degrading enzyme (IDE). [Related pubchem assays: 434962 (Primary screen (IDE inhibitors in singlicate)), 449730 (Counterscreen (Cytotoxicity in triplicate)), 435028 (Confirmation (IDE inhibitors in triplicate)), 434984 (Summary …; type: functional
T5 sequence (P14735 whole entry): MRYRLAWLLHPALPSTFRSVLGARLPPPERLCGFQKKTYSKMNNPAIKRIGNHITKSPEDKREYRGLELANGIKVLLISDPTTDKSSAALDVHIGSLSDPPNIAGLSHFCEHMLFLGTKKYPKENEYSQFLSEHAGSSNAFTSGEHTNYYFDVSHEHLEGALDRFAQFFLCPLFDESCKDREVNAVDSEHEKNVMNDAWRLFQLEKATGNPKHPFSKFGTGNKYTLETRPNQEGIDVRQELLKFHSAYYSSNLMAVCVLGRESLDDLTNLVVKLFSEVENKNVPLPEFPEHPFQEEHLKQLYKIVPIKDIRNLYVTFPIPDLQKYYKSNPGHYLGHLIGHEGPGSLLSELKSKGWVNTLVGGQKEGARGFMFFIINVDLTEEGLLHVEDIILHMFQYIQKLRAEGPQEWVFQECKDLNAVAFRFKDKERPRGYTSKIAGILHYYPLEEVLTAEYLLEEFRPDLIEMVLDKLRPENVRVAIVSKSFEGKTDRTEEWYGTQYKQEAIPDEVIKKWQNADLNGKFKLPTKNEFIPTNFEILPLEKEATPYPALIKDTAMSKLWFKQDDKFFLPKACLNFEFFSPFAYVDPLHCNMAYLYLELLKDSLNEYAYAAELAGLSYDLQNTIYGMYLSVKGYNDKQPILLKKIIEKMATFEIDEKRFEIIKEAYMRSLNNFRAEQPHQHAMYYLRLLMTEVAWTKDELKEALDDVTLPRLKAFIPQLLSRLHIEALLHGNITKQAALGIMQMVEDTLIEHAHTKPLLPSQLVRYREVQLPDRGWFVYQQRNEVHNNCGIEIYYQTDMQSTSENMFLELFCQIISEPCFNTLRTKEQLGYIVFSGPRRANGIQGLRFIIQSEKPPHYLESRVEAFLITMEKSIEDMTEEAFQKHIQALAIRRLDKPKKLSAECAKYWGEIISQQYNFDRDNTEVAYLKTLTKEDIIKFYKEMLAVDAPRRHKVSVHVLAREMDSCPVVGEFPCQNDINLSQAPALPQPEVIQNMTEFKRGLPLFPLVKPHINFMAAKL

[25] = Counterscreen for IDE inhibitors: Luminescence-based cell-based high throughput dose response assay to identify compounds that are cytotoxic to HEK cells. [Related pubchem assays: 434962 (Primary screen (IDE inhibitors in singlicate)), 449730 (Counterscreen (Cytotoxicity in triplicate)), 435028 (Confirmation (IDE inhibitors in triplicate)) …; type: functional; conditions: HEK293
[26] = system: Vero; test: cytotoxicity of synthesized analogs in Vero cells, SAR follow-up, cytotoxicity control for West Nile virus antiviral project, cell-based, set II (AID 2402); type: functional; conditions: Chlorocebus sabaeus
[27] = A Cell Based Assay for the Identification of Probe candidate Compounds with Anti- Venezuelan Equine Encephalitis virus. [Related pubchem assays: 2409, 2419, 1621, 2238, 2405, 2024, 2065, 2402, 2414, 1635, 1650, 2244 ]; type: functional

COc1ccc(C(=O)N/C(=C\c2cccs2)c2nc3ccccc3[nH]2)cc1OC
EC50 [1]: > 195 µM (not active) | CC50 [2]: > 50 µM (active) | IC50 [3]: 25.6 µM (active)

Cc1ccc2c(c1)C1C=CCC1C(C(=O)O)N2 (stereo not drawn)
IC50 [4]: > 10 µM (not active) | IC50 [5]: 37.5 µM (inactive) | IC50 [6]: 9.1 µM (active) | IC50 [7]: > 54 µM (active) | IC50 [8]: 5.44 µM (active) | IC50 [9]: > 100 µM (not active) | IC50 [10]: 15.6 µM (active) | IC50 [11]: 70.7 µM (active) | IC50 [12]: 4.77 µM (active) | IC50 [13]: 8 µM (active)

CCOC(=O)CC(C#N)c1cn(C)c2ccccc12 (stereo not drawn)
AC50 [14]: 7.18 µM (active)

CCCCCCCC1=Cc2ccccc2C(CC(C)=O)N1C(=O)OC (stereo not drawn)
AC50 [15]: 6.31 µM (inconclusive) | AC50 [16]: 3.98 µM (inconclusive) | AC50 [17]: 3.16 µM (inconclusive)

Cc1cc(-c2nnc(SCc3cccnc3)o2)no1
EC50 [18]: > 50 µM (not active)

CC(=O)c1c(C)[nH]c(C(=O)CN2C(=O)NC(C)(c3ccc(C)cc3)C2=O)c1C (stereo not drawn)
EC50 [19]: > 29.9 µM (not active) | EC50 [20]: > 29.9 µM (not active) | EC50 [21]: 11.6 µM (active)

CN(C)S(=O)(=O)c1ccc(NC(=S)NC(=O)Cc2ccccc2)cc1
AC50 [22]: 66.4 µM (active)

CCc1ccc(-n2ncc(Cl)c(Oc3ccc(OC)cc3)c2=O)cc1
IC50 [23]: 3.9 µM (active)

COc1cc(-c2cc(=O)c3ccccc3o2)ccc1O
IC50 [6]: 9.46 µM (active) | IC50 [24]: > 6.21 µM (active) | IC50 [25]: > 55.6 µM (not active)

COc1ccc(Cn2nc(C)cc2OC(=O)c2c(F)ccc(C)c2F)cc1
CC50 [26]: > 200 µM (active) | IC50 [27]: 131 µM (active)
